Source: patent publication US7745619B2, “Vinca derivatives” (priority 2003, dated 2010)
Where two headings read alike, the source gives them in different places.

Key:
MCF-7 cells = assay: MCF-7 GI50 determination (crystal violet growth inhibition); type: cell-based, human; details: Homo sapiens, MCF7, 96 h
Protocol: Growth inhibition (GI50) values were measured on the human breast carcinoma line, MCF-7. MCF-7 cells were plated at 2×10^4 cells/well in 96 well plates and grown for 24 hours in drug free media. On day 2, test compounds were added to the plates at 10-fold dilutions. Four days later, cells were fixed by the addition of glutaraldehyde to 0.75%. After 30 min, the fixed cells were extensively rinsed with distilled water and dried at room temperature for one hour. The cells were then stained with a 0.2% crystal violet solution for one hour at room temperature. Unbound stain was removed by ten rinses with tap water and plates were allowed to air dry for 30 min. The crystal violet was then solubilized by the addition of 10% acetic acid for 15 min and quantified by measuring absorbance at 570 nm on a Molecular Devices microplate reader. Growth inhibition was calculated according to the following equation: GI=[…], where the optical density (OD) of the test well after 4 days of treatment was T, the OD of the wells in the control plate on day 0 was T0. Plots of percent growth inhibition versus inhibitor concentration were used to determine the GI50.

HeLa S-3 cells = assay: HeLa GI50 determination (SRB growth inhibition); type: cell-based, human; details: Homo sapiens, HeLa S3, 48 h
Protocol: Growth inhibition (GI50) values were measured on the human cervical carcinoma cell line, HeLa S-3, which were selected for growth on plastic. The HeLa cell assay was based on the description of Skehan et al., J. Natl. Cancer Inst., 82:1107-12 (1990), which is hereby incorporated by reference in its entirety. HeLa cells were plated at 2×10^4 cells/well in 96 well plates. One day later, a control plate was fixed by the addition of TCA to 5%. After five rinses with tap water, the plate was air-dried and stored at 4° C. Test compounds were added to the remaining plates at 10-fold dilutions. Two days later, all plates were fixed as described above. Cells were then stained by the addition of 100 μL per well of 0.4% sulforhodamine B (SRB) in 1% acetic acid for 30 min at 4° C. Wells were then quickly rinsed 5× with 1% acetic acid and allowed to air dry. The SRB was then solubilized by the addition of 100 μL per well of unbuffered 10 mM Tris base. Dye was quantified by measuring absorbance at 490 nm on a Molecular Devices microplate reader. Growth inhibition was calculated according to the following equation: GI=100×(T−T0)/(C−T0), where the optical density (OD) of the test well after 2 days of treatment was T, the OD of the wells in the control plate on day 0 was T0 and C was the OD of untreated wells. Plots of percent growth inhibition versus inhibitor concentration were used to determine the GI50.

[1] = read-out: MCF-7 Cells GI50 (nM)
[2] = MCF-7 cells, 4 days of treatment, crystal violet, read-out: MCF-7 Cells GI50
[3] = HeLa S-3 cells, 2 days of treatment, sulforhodamine B, read-out: HeLa Cells GI50

SMILES	GI50 (MCF-7 cells; [1]) [nM]	GI50 (HeLa S-3 cells; read-out: HeLa Cells GI50 (nM)) [nM]	GI50 (MCF-7 cells; [2]) [nM]	GI50 (HeLa S-3 cells; [3]) [nM]
CC[C@]1(O)C[C@H]2CN(CCc3c([nH]c4ccc(Sc5ccccc5Cl)cc34)[C@@](C(=O)OC)(c3cc4c(cc3OC)N(C=O)[C@H]3[C@@](O)(C(=O)OC)[C@H](OC(C)=O)[C@]5(CC)C=CCN6CC[C@]43[C@@H]65)C2)C1 [Example 56, 12′-(2-chlorophenylsulfanyl)vincristine]	30	30		
CC[C@]1(O)C[C@H]2CN(CCc3c([nH]c4ccc(SSC)cc34)[C@@](C(=O)OC)(c3cc4c(cc3OC)N(C)[C@H]3[C@@](O)(C(=O)OC)[C@H](OC(C)=O)[C@]5(CC)C=CCN6CC[C@]43[C@@H]65)C2)C1 [Example 57, 12′-(methyldisulfanyl) vinblastine]			300	300
CC[C@]1(O)C[C@H]2CN(CCc3c([nH]c4ccc(SSC(C)C)cc34)[C@@](C(=O)OC)(c3cc4c(cc3OC)N(C)[C@H]3[C@@](O)(C(=O)OC)[C@H](OC(C)=O)[C@]5(CC)C=CCN6CC[C@]43[C@@H]65)C2)C1 [Example 58, 12′-(isopropyldisulfanyl) vinblastine]	100	200		
CC[C@]1(O)C[C@H]2CN(CCc3c([nH]c4ccc(SSC(C)(C)C)cc34)[C@@](C(=O)OC)(c3cc4c(cc3OC)N(C)[C@H]3[C@@](O)(C(=O)OC)[C@H](OC(C)=O)[C@]5(CC)C=CCN6CC[C@]43[C@@H]65)C2)C1 [Example 59, 12′-(tert-butyldisulfanyl) vinblastine]	300	300		
CC[C@]1(O)C[C@H]2CN(CCc3c([nH]c4ccc(C=O)cc34)[C@@](C(=O)OC)(c3cc4c(cc3OC)N(C)[C@H]3[C@@](O)(C(=O)OC)[C@H](OC(C)=O)[C@]5(CC)C=CCN6CC[C@]43[C@@H]65)C2)C1 [Example 61, 12′-formylvinblastine]			3	3
CC[C@]1(O)C[C@H]2CN(CCc3c([nH]c4ccc(C=O)cc34)[C@@](C(=O)OC)(c3cc4c(cc3OC)N(C=O)[C@H]3[C@@](O)(C(=O)OC)[C@H](OC(C)=O)[C@]5(CC)C=CCN6CC[C@]43[C@@H]65)C2)C1 [Example 62, 12′-formylvincristine]			30	10
CC[C@]1(O)C[C@H]2CN(CCc3c([nH]c4ccc(CO)cc34)[C@@](C(=O)OC)(c3cc4c(cc3OC)N(C)[C@H]3[C@@](O)(C(=O)OC)[C@H](OC(C)=O)[C@]5(CC)C=CCN6CC[C@]43[C@@H]65)C2)C1 [Example 63, 12′-(hydroxymethyl) vinblastine]			60	40
CC[C@]1(O)C[C@H]2CN(CCc3c([nH]c4ccc(CNC(C)C)cc34)[C@@](C(=O)OC)(c3cc4c(cc3OC)N(C)[C@H]3[C@@](O)(C(=O)OC)[C@H](OC(C)=O)[C@]5(CC)C=CCN6CC[C@]43[C@@H]65)C2)C1 [Example 64, 12′-(N-isopropylaminomethyl)vinblastine]			> 1000	900
CC[C@]1(O)C[C@H]2CN(CCc3c([nH]c4ccc(C#N)cc34)[C@@](C(=O)OC)(c3cc4c(cc3OC)N(C)[C@H]3[C@@](O)(C(=O)OC)[C@H](OC(C)=O)[C@]5(CC)C=CCN6CC[C@]43[C@@H]65)C2)C1 [Example 65, 12′-cyanovinblastine]			3	3
CC[C@]1(O)C[C@H]2CN(CCc3c([nH]c4ccc(C#N)cc34)[C@@](C(=O)OC)(c3cc4c(cc3OC)N(C=O)[C@H]3[C@@](O)(C(=O)OC)[C@H](OC(C)=O)[C@]5(CC)C=CCN6CC[C@]43[C@@H]65)C2)C1 [Example 66, 12′-cyanovincristine]			4	10
CC[C@]1(O)C[C@H]2CN(CCc3c([nH]c4ccc(C(=O)OCC(Cl)(Cl)Cl)cc34)[C@@](C(=O)OC)(c3cc4c(cc3OC)N(C)[C@H]3[C@@](O)(C(=O)OC)[C@H](OC(C)=O)[C@]5(CC)C=CCN6CC[C@]43[C@@H]65)C2)C1 [Example 68, 12′-(2,2,2-trichloroethylcarbonyl)vinblastine]	200	30		
CC[C@]1(O)C[C@H]2CN(CCc3c([nH]c4ccc(C(=O)NC)cc34)[C@@](C(=O)OC)(c3cc4c(cc3OC)N(C)[C@H]3[C@@](O)(C(=O)OC)[C@H](OC(C)=O)[C@]5(CC)C=CCN6CC[C@]43[C@@H]65)C2)C1 [Example 69, 12′-N-(methylaminocarbonyl)vinblastine]	> 1000	600		
CC[C@]1(O)C[C@H]2CN(CCc3c([nH]c4ccc(C(C)=O)cc34)[C@@](C(=O)OC)(c3cc4c(cc3OC)N(C)[C@H]3[C@@](O)(C(=O)OC)[C@H](OC(C)=O)[C@]5(CC)C=CCN6CC[C@]43[C@@H]65)C2)C1 [Example 70, 12′-acetylvinblastine]	100	200		
CC[C@]1(O)C[C@H]2CN(CCc3c([nH]c4ccc(C(=O)CC(C)C)cc34)[C@@](C(=O)OC)(c3cc4c(cc3OC)N(C=O)[C@H]3[C@@](O)(C(=O)OC)[C@H](OC(C)=O)[C@]5(CC)C=CCN6CC[C@]43[C@@H]65)C2)C1 [Example 71, 12′-(3-methylbutanoyl) vincristine]	100	200		
CCCCCC(=O)c1ccc2[nH]c3c(c2c1)CCN1C[C@H](C[C@@](O)(CC)C1)C[C@]3(C(=O)OC)c1cc2c(cc1OC)N(C=O)[C@H]1[C@@](O)(C(=O)OC)[C@H](OC(C)=O)[C@]3(CC)C=CCN4CC[C@]21[C@@H]43 [Example 72, 12′-hexanoylvincristine]	50	40		
CC[C@]1(O)C[C@H]2CN(CCc3c([nH]c4ccc(CCC(C)C)cc34)[C@@](C(=O)OC)(c3cc4c(cc3OC)N(C=O)[C@H]3[C@@](O)(C(=O)OC)[C@H](OC(C)=O)[C@]5(CC)C=CCN6CC[C@]43[C@@H]65)C2)C1 [Example 73, 12′-(3-methylbutyl) vincristine]	300	200		
CCCCCCc1ccc2[nH]c3c(c2c1)CCN1C[C@H](C[C@@](O)(CC)C1)C[C@]3(C(=O)OC)c1cc2c(cc1OC)N(C=O)[C@H]1[C@@](O)(C(=O)OC)[C@H](OC(C)=O)[C@]3(CC)C=CCN4CC[C@]21[C@@H]43 [Example 74, 12′-hexylvincristine]			40	30
CC[C@]1(O)C[C@H]2CN(CCc3c([nH]c4ccc(C)cc34)[C@@](C(=O)OC)(c3cc4c(cc3OC)N(C=O)[C@H]3[C@@](O)(C(=O)OC)[C@H](OC(C)=O)[C@]5(CC)C=CCN6CC[C@]43[C@@H]65)C2)C1 [Example 76, 12′-methylvincristine]			3	1
CCc1ccc2[nH]c3c(c2c1)CCN1C[C@H](C[C@@](O)(CC)C1)C[C@]3(C(=O)OC)c1cc2c(cc1OC)N(C)[C@H]1[C@@](O)(C(=O)OC)[C@H](OC(C)=O)[C@]3(CC)C=CCN4CC[C@]21[C@@H]43 [Example 77, 12′-ethylvinblastine]			0.6	0.3
CCc1ccc2[nH]c3c(c2c1)CCN1C[C@H](C[C@@](O)(CC)C1)C[C@]3(C(=O)OC)c1cc2c(cc1OC)N(C=O)[C@H]1[C@@](O)(C(=O)OC)[C@H](OC(C)=O)[C@]3(CC)C=CCN4CC[C@]21[C@@H]43 [Example 78, 12′-ethylvincristine]			10	5
CC[C@]1(O)C[C@H]2CN(CCc3c([nH]c4ccc(N(C)c5ccccc5)cc34)[C@@](C(=O)OC)(c3cc4c(cc3OC)N(C)[C@H]3[C@@](O)(C(=O)OC)[C@H](OC(C)=O)[C@]5(CC)C=CCN6CC[C@]43[C@@H]65)C2)C1 [Example 79, 12′-(N-methyl-N-phenylamino) vinblastine]	> 1000	700		
CC[C@]1(O)C[C@H]2CN(CCc3c([nH]c4ccc(N)cc34)[C@@](C(=O)OC)(c3cc4c(cc3OC)N(C)[C@H]3[C@@](O)(C(=O)OC)[C@H](OC(C)=O)[C@]5(CC)C=CCN6CC[C@]43[C@@H]65)C2)C1 [Example 80, 12′-aminovinblastine]			200	200
CC[C@]1(O)C[C@H]2CN(CCc3c([nH]c4ccc(N(C)C)cc34)[C@@](C(=O)OC)(c3cc4c(cc3OC)N(C)[C@H]3[C@@](O)(C(=O)OC)[C@H](OC(C)=O)[C@]5(CC)C=CCN6CC[C@]43[C@@H]65)C2)C1 [Example 81, 12′-(N,N-dimethylamino)vinblastine]			50	30
